The target of one assay is T1, 15-PGDH (Homo sapiens, UniProt P15428).
T1 construct: made in house
T1 sequence (P15428 1-266): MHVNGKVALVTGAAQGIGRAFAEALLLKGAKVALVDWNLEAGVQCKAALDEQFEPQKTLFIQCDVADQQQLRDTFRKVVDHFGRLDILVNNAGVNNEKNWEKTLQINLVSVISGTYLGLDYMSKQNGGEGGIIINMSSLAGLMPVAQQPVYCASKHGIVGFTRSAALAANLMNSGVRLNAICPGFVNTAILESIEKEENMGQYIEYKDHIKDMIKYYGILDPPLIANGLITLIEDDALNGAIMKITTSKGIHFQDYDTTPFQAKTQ
The assay is described as follows: Test on 15-PGDH (spectrophotometric, 340 nm, PGE2/β-NAD). The assay is classed as biochemical. As to conditions: for Inhibition of 15-PGDH % inhibition at 50 μm: compound at 50 μm, pH 7.4. How it is done:
The enzyme 15-PGDH is obtained as described in patent application FR 02/05067 filed in the name of L'Oréal, as a suspension in a medium adjusted to a concentration of 0.3 mg/mL and then blocked at −80° C. For the purposes of the test, this suspension is thawed and stored in ice.
In parallel, a 100 mM, pH 7.4 Tris buffer containing 0.1 mM of dithiothreitol (D5545, Sigma-Aldrich, L'isle D'Abeau Chesne, BP 701, 38297, Saint Quentin Fallavier), 1.5 mM of β-NAD (N6522, Sigma-Aldrich, L'isle D'Abeau Chesne, BP 701, 38297, Saint Quentin Fallavier), and 50 μM of prostaglandin E2 (P4172, Sigma-Aldrich, L'isle D'Abeau Chesne, BP 701, 38297, Saint Quentin Fallavier) is prepared.
0.965 ml of this buffer (brought to 37° C. beforehand) is introduced into the cuvette of a spectrophotometer (Perkin-Elmer, Lambda 2) thermostatically maintained at 37° C., the measuring wavelength of which is set at 340 nm. 0.035 mL of enzymatic suspension at 37° C. is introduced into the cuvette concomitantly with the recording (corresponding to an increase in the optical density at 340 nm). The maximum reaction rate is recorded.
The test values (containing the compounds (I)) are compared with the control value (without compound (I)); the results indicated represent the concentration at which the compound of formula (I) reduces the anzymatic activity of 15-PGDH by 50%, namely IC50dh.

The target of another assay is T2, PGF synthase (PGFS) (Homo sapiens, UniProt P42330).
T2 construct: made in house
T2 sequence (P42330 1-323): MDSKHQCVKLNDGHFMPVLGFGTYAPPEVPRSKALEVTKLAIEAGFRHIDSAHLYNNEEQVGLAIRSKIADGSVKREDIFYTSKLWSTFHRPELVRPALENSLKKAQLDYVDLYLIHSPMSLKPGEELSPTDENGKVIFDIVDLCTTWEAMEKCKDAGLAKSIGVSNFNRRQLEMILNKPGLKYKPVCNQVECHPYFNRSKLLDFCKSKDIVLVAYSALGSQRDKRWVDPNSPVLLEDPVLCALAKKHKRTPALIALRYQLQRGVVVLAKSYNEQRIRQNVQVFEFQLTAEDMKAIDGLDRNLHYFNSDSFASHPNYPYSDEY
The assay is described as follows: Test on PGF synthase (spectrophotometric, 340 nm, 9,10-phenanthrenequinone/β-NADPH). Format: biochemical. Conditions: IC50fs; 37° C., pH 6.5 Tris buffer, 20 μM 9,10-phenanthrenequinone, 100 μM β-NADPH. How it is done:
The enzyme PGFS is obtained as described in document FR-A-02/05067, at a concentration of 0.5 mg/mL, as a suspension in a suitable medium, and blocked at −80° C. For the purposes of the test, this suspension is thawed and stored in ice.
In parallel, a 100 mM, pH 6.5 Tris buffer containing 20 μM of 9,10-phenanthrenequinone* (P2896, Sigma-Aldrich, L'isle D'Abeau Chesne, BP 701, 38297, Saint Quentin Fallavier) and 100 μM of β-NADPH (N1630, Sigma-Aldrich, L'isle D'Abeau Chesne, BP 701, 38297, Saint Quentin Fallavier) is prepared in a brown flask (protected from light).
*A stock solution with a titre of 1 mM is prepared in absolute ethanol and brought to 40° C.; the flask is placed in an ultrasound cuvette to facilitate the dissolution of the product.
0.950 mL of this buffer (brought to 37° C. beforehand) is introduced into the cuvette of a spectrophotometer (Perkin-Elmer, Lambda 2) thermostatically maintained at 37° C., the measuring wavelength of which is set at 340 nm. 0.05 mL of enzymatic suspension at 37° C. is introduced into the cuvette concomitantly with the recording (corresponding to a reduction in the optical density at 340 nm). The maximum reaction rate is recorded. […]

Molecules are shown by their SMILES.

Turning to `CC(=O)c1ccc(C#N)c(SCC(=O)Nc2cc(Cl)cc(Cl)c2)n1` [Compound 2], on 15-PGDH (37° C.), the “Inhibition of 15-PGDH % inhibition at 50 μm” value came out at 30%.

Take `O=C(CSc1nnc2sc3ccccc3n12)Nc1ccc(Br)cc1` [Compound 3]: at 15-PGDH (37° C.), the “Inhibition of 15-PGDH % inhibition at 50 μm” value came out at 26%.

`O=C(CSc1nc2ccccc2s1)NC1CCCC1` [Compound 1]: the IC50 on 15-PGDH (IC50dh, 37° C., pH 7.4 Tris buffer, 50 μM prostaglandin E2, 1.5 mM β-NAD, read-out: Inhibition of 15-PGDH IC50) was 5 µM; against PGF synthase (PGFS) it was not below 50 µM. In addition, at 15-PGDH (37° C.), the “Inhibition of 15-PGDH % inhibition at 50 μm” value is reported as 89%. Besides, at 15-PGDH (selectivity: PGF synthase IC50 over 15-PGDH IC50), the IC50fs/IC50dh ratio result is “greater than 10”.

Broadly, the IC50 is the concentration that gives 50% inhibition.

The values above are taken from patent publication US20050169863A1, “2-Thioacetamide compositions for stimulating the growth of keratin fibers and/or for reducing loss thereof” (L'OREAL, priority 2003, published 2005).
